Results taken from patent publication US10258612B2, “Mitochondrial lipid permeable iron chelators for treating and preventing ischemia/reperfusion (I/R) injury in the heart following an ischemic event” (Northwestern University, priority 2015, dated 2019).
“Also recorded” adds a separate entry of the source.

How the values were obtained:
[1] = test system: wild-type mice; test: Cardiac mitochondrial, cytosolic and nuclear non-heme iron in wild-type mice treated with iron chelator; format: in vivo; details: wild-type mice at baseline, one-week regimen, BPD 80 mg/kg per day, DFO 50 mg/kg every other day
Procedure: Mice were treated with 80 mg/kg BPD (Sigma) in normal saline solution daily or 50 mg/kg DFO (Sigma) in normal saline every other day via intraperitoneal injection. The dose of BPD was chosen based on its ability to modulate cardiac mitochondrial iron, and the dose of DFO was chosen according to previously published studies (Ichikawa et al., 2014). BPD was prepared as a 400 mg/ml stock solution in ethanol and diluted 1:100 in normal saline to working concentration. DFO was prepared as a 250 mg/ml stock in water and diluted 1:100 in normal saline to working concentration. […]
Tissue iron was measured colorimetrically by the formation of a complex with bathophenanthroline disulfonate or ferene-S as described previously (Ichikawa et al., 2012; Khechaduri et al., 2013). […] Quantitative measurement of labile iron was done according to previously described methods (Cabantchik et al., 1996; Petrat et al., 2002b). […] Fluorescence intensity was measured using Gemini XS plate reader (Molecular Device) with following excitation emission setting: ex/em 490 nm/520 nm for mitoTracker Green and calcein, 564 nm/601 nm for RPA, and 350 nm/461 nm for Hoechst 33342. After initial measurement, 2 mM of PIH (Abcam) was added to each well and fluorescence signal was measured again. […]

[2] = test system: cardiac-specific ABCB8 knockout mice; test: Spontaneous cardiomyopathy in cardiac-specific ABCB8 knockout mice; format: in vivo
From the text: We next took a loss-of-function approach, and studied whether a decrease in mitochondrial iron in cardiac-specific ABCB8 knockout mice, a model of spontaneous cardiomyopathy with mitochondrial iron overload (Ichikawa et al., 2012), protects against cardiac tissue damage. […] Mitochondrial iron in ABCB8 flox/flox (LoxP sequence flanking exon one of both alleles of ABCB8) mice with or without the αMHC-MER-Cre-MER transgene was modulated with BPD or vehicle control for one week before the induction of ABCB8 deletion with tamoxifen. BPD treatment continued until four weeks after the completion of tamoxifen treatment, at which point mitochondrial iron and cardiac function were measured. The effectiveness of Cre-mediated gene excision was confirmed at the protein level (FIG. 15). […] These findings indicate that prevention of mitochondrial iron accumulation through a pharmacological approach delays the development of cardiomyopathy in an animal model of mitochondrial iron accumulation.
Cardiomyocyte-specific ABCB8 transgenic mice were generated as described previously (Ichikawa et al., 2014) and backcrossed for at least 8 generations. Mice with both alleles of ABCB8 floxed (ABCB8f/f) were crossed to α-MHC MER-Cre-MER mice, and the first generation is back-crossed with ABCB8f/f mice to generate ABCB8f/f mice with or without α-MHC MER-Cre-MER transgene. Tamoxifen-induced Cre translocation and deletion of ABCB8 in the heart was achieved using a previously described protocol (Ichikawa et al., 2012). All animal studies were approved by the Institutional Animal Care and Use Committee at Northwestern University and were performed in accordance with guidelines from the National Institutes of Health.
(§1) Mice were treated with 80 mg/kg BPD (Sigma) in normal saline solution daily or 50 mg/kg DFO (Sigma) in normal saline every other day via intraperitoneal injection. The dose of BPD was chosen based on its ability to modulate cardiac mitochondrial iron, and the dose of DFO was chosen according to previously published studies (Ichikawa et al., 2014). BPD was prepared as a 400 mg/ml stock solution in ethanol and diluted 1:100 in normal saline to working concentration. DFO was prepared as a 250 mg/ml stock in water and diluted 1:100 in normal saline to working concentration.
(§2) Parasternal short- and long-axis views of the heart were obtained using a Vevo 770 high-resolution imaging system with a 30 MHz scan head. 2D and M-mode images were obtained and analyzed. Ejection fraction was calculated from M mode image using Teichholtz equation, and fractional shortening was directly calculated from end-systolic and end-diastolic chamber size from M-mode images.
Tissue iron was measured colorimetrically by the formation of a complex with bathophenanthroline disulfonate or ferene-S as described previously (Ichikawa et al., 2012; Khechaduri et al., 2013). For qualitative measurement of mitochondrial labile iron, cells were stained with Rhodamine B-[1,10-phenanthrolin-5-yl)-aminocarbonyl]benzyl ester (RPA) (Squarix) and mitoTracker Green (Invitrogen). Images were obtained on a Zeiss AxioObserver.Z1 microscope. Quantitative measurement of labile iron was done according to previously described methods (Cabantchik et al., 1996; Petrat et al., 2002b). Briefly, cells were stained with RPA and mitoTracker Green for mitochondrial labile iron measurement and calcein (Invitrogen) and Hoechst 33342 (Invitrogen) for cytosolic labile iron measurement. Fluorescence intensity was measured using Gemini XS plate reader (Molecular Device) with following excitation emission setting: ex/em 490 nm/520 nm for mitoTracker Green and calcein, 564 nm/601 nm for RPA, and 350 nm/461 nm for Hoechst 33342. After initial measurement, 2 mM of PIH (Abcam) was added to each well and fluorescence signal was measured again. […]

[3] = test system: mitochondrial aconitase, complex I, II and IV; test: Mitochondrial enzyme and complex activities in H9c2 cells; format: cell-based, rat; details: chelator pre-treatment, then H2O2
Procedure: (§3) H9c2 cardiomyoblasts were cultured in DMEM (ATCC) supplemented with 10% FBS (Thermo) and Penicillin/Streptomycin (Cellgro). HEK293T cells were cultured in MEM (Cellgro) supplemented with 10% FBS, sodium pyruvate (Cellgro) and Penicillin/Streptomycin. Unless otherwise specified, cells were treated with 200 μM of DFO or 100 μM of BPD for two hours when indicated prior to addition of 600 μM of H2O2 when indicated for 6 hours. RNA isolation and qRT-PCR RNA was isolated using RNA-STAT60 (Tel-Test) according to the manufacturer's instructions, and subjected to DNAse I (Ambion) digestion to remove residual DNA. Purified RNA was then reverse transcribed with Random Hexamer and Oligo dT(16) (Applied Biosystems) and amplified on a 7500 Fast Real-Time PCR system using Fast SYBR Green PCR Master Mix (Applied Biosystems). mRNA levels were calculated based on the difference of threshold Ct values in target gene and average Ct values of 18s, Actb, B2m, and Hprt in the same sample.
Mitochondria were isolated from cells as described above. Mitochondrial complex I, II and IV activity was measured as described previously (Spinazzi et al., 2012). Aconitase activity was measured using Aconitase Activity Microplate Assay Kit (Abcam). Citrate synthase activity was measured from the same sample using Citrate Synthase Activity Kit (BioVision) and was used to normalize the mitochondrial complex activity.

[4] = test system: H9c2 cells; test: H2O2-induced cell death in H9c2 cells; format: cell-based, rat; details: chelator pretreatment, then H2O2
Procedure: as §3
For in vitro studies, cells were resuspended in 1× Annexin V buffer (BD) and then stained with Alexa Fluor 350 conjugated Annexin V (Life Technology) and propidium iodide (Sigma) according to the manufacturer's instructions and analyzed on a LSRII flow cytometer (BD).

[5] = test system: H9c2 cells; test: Mitochondrial ROS (mitoSox) in H9c2 cells after hydrogen peroxide treatment; format: cell-based, rat; details: chelator pretreatment
Procedure: as §3
Mitochondrial ROS levels in intact cells were quantified using MitoSox Red (Life Technologies). Briefly, cells were loaded with MitoSox to stain for mitochondrial ROS and Hoechst 33342 for nuclei counter stain. Images were obtained on a Zeiss AxioObserver.Z1 microscope and analyzed with ImageJ software (NIH). MitoSox signal in the nuclei was subtracted to exclude localization of the dye to the nuclei.

[6] = test system: H9c2 cardiomyoblasts; test: Mitochondrial labile (chelatable) iron by RPA fluorescence in H9c2 cells; format: cell-based, rat
Procedure: as §3
Tissue iron was measured colorimetrically by the formation of a complex with bathophenanthroline disulfonate or ferene-S as described previously (Ichikawa et al., 2012; Khechaduri et al., 2013). […] Quantitative measurement of labile iron was done according to previously described methods (Cabantchik et al., 1996; Petrat et al., 2002b). […]

[7] = test system: H9c2 cells; test: Mitochondrial membrane potential (TMRE) in H9c2 cells; format: cell-based, rat; details: H2O2
Procedure: as §3
Cells were stained with 5 nM of TMRE (Life Technology) and counter stained with Hoechst 33342. Images were obtained on a Zeiss AxioObserver.Z1 microscope and analyzed with ImageJ software (NIH).

[8] = test system: H9c2 cells; test: Cytosolic and nuclear iron in H9c2 cells preloaded with radioactive 55Fe; format: cell-based, rat; details: H9c2 cells preloaded with 55Fe
Procedure: as §3
For nuclear and cytosolic iron, cells were loaded with 280 nM of ^55Fe-NTA. Excess ^55Fe-NTA was washed off with cold PBS containing 200 μM DFO prior to chelator treatment. The nuclear and cytosolic fractions were isolated using NE-PER Nuclear and Cytoplasmic Extraction Reagents (Pierce) and the radioactivity was quantified with liquid scintillation.

[9] = test system: wild-type mice subjected to I/R; test: Ischemia/reperfusion (I/R) injury in chelator-pretreated wild-type mice; format: in vivo
Procedure: (§4) To test the use of these iron chelators in the setting of I/R, mice were pretreated for a week with these chelators and then subjected to I/R or sham operation. Chelation was continued for two weeks after the operation. […] To rule out any changes of serum iron hematopoiesis that can account for the cardiac functional difference, we performed complete blood counts and measured serum iron parameters in wild-type mice treated with iron chelators for 3 weeks.
as §1
The procedure was performed as described previously (Wu et al., 2011).
as §2
At the time of tissue harvest, heart was excised and rinsed in phosphate buffered saline to remove excess blood on tissue and in ventricles. Hearts were then submerged into OTC compound and frozen in liquid nitrogen. For hearts with I/R injury, sections were collected 500 μm below suture line to capture the injured region. Sections were stained with hematoxylin and eosin for evaluation of general cardiac morphology and tissue organization. Masson Trichrome staining were used to visualize cardiac fibrosis. Fibrosis was quantified from low power microscope images by dividing the arc length of fibrotic scar to the circumference of left ventricle.
H9c2 cardiomyoblasts were cultured in DMEM (ATCC) supplemented with 10% FBS (Thermo) and Penicillin/Streptomycin (Cellgro). HEK293T cells were cultured in MEM (Cellgro) supplemented with 10% FBS, sodium pyruvate (Cellgro) and Penicillin/Streptomycin. […] Purified RNA was then reverse transcribed with Random Hexamer and Oligo dT(16) (Applied Biosystems) and amplified on a 7500 Fast Real-Time PCR system using Fast SYBR Green PCR Master Mix (Applied Biosystems). mRNA levels were calculated based on the difference of threshold Ct values in target gene and average Ct values of 18s, Actb, B2m, and Hprt in the same sample.

[10] = cited from earlier work
[11] = Complete blood count and serum iron parameters in wild-type mice with chelator treatment; format: in vivo; details: iron chelators for 3 weeks, n = 5, mean±SEM
Procedure: as §4, §1

| SMILES | log P [10] | Hematocrit [11] [%] | Hemoglobin [11] [g/dL] | Iron Saturation [11] [%] | MCH [11] [pg] | MCHC [11] [g/dL] | MCV [11] [fL] | Platelet [11] | RBC [11] | RDW [11] [%] | Serum Iron [11] [µg/dL] | Total Iron Binding Capacity [11] [µg/dL] | Unsaturated Iron Binding Capacity [11] [µg/dL] | WBC [11] | further results |
| --- | --- | --- | --- | --- | --- | --- | --- | --- | --- | --- | --- | --- | --- | --- | --- |
| c1ccc(-c2ccccn2)nc1 [BPD, 2,2′-bipyridyl] | 1.5 | 47.53 ± 1.84 | 13.12 ± 0.30 | 15.25 ± 0.81 | 12.38 ± 0.53 | 26.34 ± 1.21 | 47.02 ± 0.36 | 1007 ± 236.72 10^3/μL | 10.7 ± 0.62 10^6/μL | 17 ± 0.41 | 44.40 ± 2.24 | 291.42 ± 4.63 | 247.02 ± 4.93 | 5.70 ± 0.40 10^3/μL | cardiac mitochondrial iron [1]: decreased cardiac mitochondrial iron; also recorded: decreased baseline mitochondrial iron; also recorded: lower mitochondrial iron; cardiac function in ABCB8 knockout mice ([2]; BPD from 1 week before deletion until 6 weeks after deletion, read at 6 weeks after deletion): preserved cardiac function; mitochondrial iron accumulation in ABCB8 KO mice ([2]; Cre+ (KO) mice, BPD from one week before tamoxifen until four weeks after tamoxifen): prevented the development of iron accumulation; mitochondrial iron in Cre- (WT) mice ([2]; Cre- (WT) mice, same BPD regimen): resulted in a decrease in mitochondrial iron; cardiotoxicity of the treatment itself ([2]; WT mice, same BPD regimen): not cardiotoxic; lipid peroxidation products in ABCB8 KO mice ([2]; chelator-treated ABCB8 KO mice): attenuated the increase; cardiac function (ejection fraction, fractional shortening) in ABCB8 KO mice ([2]; four weeks after completion of tamoxifen treatment): preserved cardiac function; expression of Nppa, Nppb and Myh7 in ABCB8 KO mice ([2]; four weeks after tamoxifen): attenuated expression of Nppa, Nppb and Myh7; activities of mitochondrial aconitase, complex I, II and IV after H2O2 treatment [3]: protected the activities of mitochondrial aconitase, complex I, II and IV after H2O2 treatment; H2O2-induced cell death [4]: significantly reversed H2O2-induced cell death; also recorded: protected cells against H2O2 induced cell death; increase in mitochondrial ROS after hydrogen peroxide treatment (mitoSox) [5]: significantly attenuated; increase in mitochondrial labile iron after H2O2 treatment ([6]; chelator pretreatment, then 600 μM H2O2 for 6 hours): attenuated; chelatable / labile mitochondrial iron ([6]; two-hour pretreatment, 200 μM DFO or 100 μM BPD, no H2O2): decreased mitochondrial labile iron; also recorded: significantly reduced chelatable mitochondrial iron; also recorded: significantly lowered chelatable mitochondrial iron; mitochondrial membrane potential after oxidative stress [7]: prevented the significant decrease of mitochondrial membrane potential after oxidative stress; cytosolic iron [8]: significant decreases; nuclear iron [8]: significant decreases; cardiac remodeling (tissue fibrosis) after I/R ([9]; mice pretreated for a week, H&E and Masson Trichrome staining): less cardiac remodeling compared to either vehicle- or DFO-treated mice; cardiac function after I/R / protection against I/R injury ([9]; mice pretreated for a week, chelation continued for two weeks after operation): significantly preserved cardiac function after I/R; also recorded: protected mice against I/R injury; expression of Nppa, Nppb and Myh7 after I/R ([9]; mice pretreated for a week, subjected to I/R): attenuated the expression of Nppa, Nppb and Myh7; ROS production after I/R ([9]; mice pretreated with chelator): reduced ROS production |
| CC(=O)N(O)CCCCCNC(=O)CCC(=O)N(O)CCCCCNC(=O)CCC(=O)N(O)CCCCCN [DFO, deferoxamine] | −0.614 | 47.02 ± 2.25 | 12.96 ± 0.53 | 18.66 ± 1.68 | 13.28 ± 0.12 | 27.62 ± 0.32 | 48.1 ± 0.31 | 711.6 ± 139.86 10^3/μL | 9.77 ± 0.43 10^6/μL | 17 ± 0.32 | 53.37 ± 6.63 | 281.21 ± 12.76 | 227.85 ± 7.71 | 6.62 ± 0.85 10^3/μL |  |
